The target in this assay is T1, hAhR (Homo sapiens, UniProt P35869).
T1 construct: Stably integrated DRE-luciferase cell lines were generated by transducing the both cell lines with Cignal XRE luciferase reporter; endogenous in cells; host or cells: HEPG2 DRE-Luc cells (only the XRE luciferase reporter was transduced)
T1 sequence (P35869 11-848): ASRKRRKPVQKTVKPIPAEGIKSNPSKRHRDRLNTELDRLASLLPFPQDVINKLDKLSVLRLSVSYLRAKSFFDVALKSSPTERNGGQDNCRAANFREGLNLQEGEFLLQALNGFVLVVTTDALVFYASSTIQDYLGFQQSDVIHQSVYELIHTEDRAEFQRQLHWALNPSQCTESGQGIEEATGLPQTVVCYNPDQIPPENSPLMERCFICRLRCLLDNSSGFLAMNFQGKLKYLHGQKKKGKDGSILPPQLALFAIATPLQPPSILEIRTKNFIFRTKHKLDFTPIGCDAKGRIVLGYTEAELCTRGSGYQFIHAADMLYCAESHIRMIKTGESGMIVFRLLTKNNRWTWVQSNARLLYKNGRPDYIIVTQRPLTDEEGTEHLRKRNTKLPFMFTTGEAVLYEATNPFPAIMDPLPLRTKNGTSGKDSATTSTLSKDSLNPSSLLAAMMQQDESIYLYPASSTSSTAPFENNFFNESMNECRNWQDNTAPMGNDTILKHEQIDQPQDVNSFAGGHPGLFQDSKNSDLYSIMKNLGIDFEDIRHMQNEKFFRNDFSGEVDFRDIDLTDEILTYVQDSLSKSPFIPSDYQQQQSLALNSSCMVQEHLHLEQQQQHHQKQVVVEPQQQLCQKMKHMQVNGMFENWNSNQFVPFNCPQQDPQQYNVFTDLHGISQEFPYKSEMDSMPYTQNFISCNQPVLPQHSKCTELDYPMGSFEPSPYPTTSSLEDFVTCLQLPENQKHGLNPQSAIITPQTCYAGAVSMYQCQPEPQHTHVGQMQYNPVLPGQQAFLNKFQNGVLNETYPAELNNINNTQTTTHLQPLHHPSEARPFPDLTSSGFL
Kind of assay: DRE-luciferase transcriptional reporter assay in HEPG2 DRE-Luc cells, TCDD-induced (antagonist mode). The note with it: relative IC50, 3 nM TCDD, 24-hour incubation, firefly luciferase readout. In kind it is cell-based. On the procedure: HEPG2 and HEPA1C1C7 cells were maintained in MEM and αMEM without nucleosides supplemented with 10% heat inactivated FBS respectively. Stably integrated DRE-luciferase cell lines were generated by transducing the both cell lines with Cignal XRE luciferase reporter (Qiagen) lentiviral particles according to the manufacturer protocol. For both cell lines stably integrated reporter cell lines were selected for the presence of 2 μg/mL puromycin. Following selection of stably integrated cell line pools, clonal cell lines were isolated by limiting dilution in 96-well plates. Transcriptional assays were performed by seeding 100 μL of cells at a density of 250,000 or 100,000 cells/mL, for HEPG2 and HEPA1C1C7 DRE-Luc cells respectively, into 96-well cell culture plates in OptiMEM supplemented with 0.5% heat inactivated FBS and allowed to attach overnight. For modulator assays, the compounds were added in a semi-log dose response using a D300e Digital Dispenser (Tecan) followed normalization with vehicle (DMSO). Immediately following compound addition 10 μL of 2,3,7,8-Tetrachlorodibenzo-p-dioxin (TCDD) was added to the cells to a final concentration of 3 nM or 0.3 nM for the HEPG2 and HEPA1C1C7 DRE-Luc cells respectively. Following 24-hour incubation, the medium was removed and the cells were lysed in 25 μL of Reporter Lysis Buffer (Promega). Firefly luciferase activity was measured immediately following the addition of 50 μL Luciferase Assay Reagent (Promega). The percent maximal activity for each point was determined using the following equation: (RLUsample−RLUvehicle−TCDD)/(RLUvehicle+TCDD RLUvehicle−TCDD)*100. The relative IC50, defined as the compound concentration required to reduce the TCDD induced response between the top and bottom plateau of each individual dose response curve by half, for each compound was determined using Prism 7 (GraphPad Software).
For orientation: In a reporter assay the amount or activity of a reporter protein is the signal.
Take “2-((2-hydroxy-2-azaspiro[3.3]heptan-2-yl)methyl)-3-methyl-5-(2-methyl-4-(6-(trifluoromethyl)pyrido[3,2-d]pyrimidin-2-yl)phenyl)-6,7-dihydropyrazolo[1,5-a]pyrazin-4 (5H)-one [Example 109]”: the IC50 is < 0.2 µM.

As to `Cc1cc(-c2ncc3cc(C(F)(F)F)ccc3n2)ccc1N1CCn2ncc(C)c2S1(=O)=O` [Example 93, 8-methyl-2-(2-methyl-4-(6-(trifluoromethyl)quinazolin-2-yl)phenyl)-3,4-dihydro-2H-pyrazolo[1,5-e][1,2,5]thiadiazine 1,1-dioxide], the IC50 is < 0.2 µM.

In the case of `Cc1cc(-c2ncc3cc(C(F)(F)F)ccc3n2)ccc1N1CCn2ncc(C3NC(=O)NC3=O)c2C1=O` (centres unmarked) [Example 94, 5-(5-(2-methyl-4-(6-(trifluoromethyl)quinazolin-2-yl)phenyl)-4-oxo-4,5,6,7-tetrahydropyrazolo[1,5-a]pyrazin-3-yl)imidazolidine-2,4-dione], the IC50 was < 0.2 µM.

In the case of `Cc1cc(-c2ncc3cc(C(F)(F)F)ccc3n2)ccc1N1CCn2nc(CN3CCO[C@H](C)C3)c(C)c2C1=O` [Example 95, (R)-3-methyl-5-(2-methyl-4-(6-(trifluoromethyl)quinazolin-2-yl)phenyl)-2-((2-methylmorpholino)methyl)-6,7-dihydropyrazolo[1,5-a]pyrazin-4 (5H)-one], the IC50 was < 0.2 µM.

With `Cc1cc(-c2ncc3cc(C(F)(F)F)ccc3n2)ccc1N1CCn2nc(CN3CCO[C@@H](C)C3)c(C)c2C1=O` [Example 96, (S)-3-methyl-5-(2-methyl-4-(6-(trifluoromethyl)quinazolin-2-yl)phenyl)-2-((2-methylmorpholino)methyl)-6,7-dihydropyrazolo[1,5-a]pyrazin-4 (5H)-one], the IC50 was < 0.2 µM.

With `Cc1cc(-c2ncc3cc(C(F)(F)F)ccc3n2)ccc1N1CCn2nc(COP(=O)(O)O)c(C)c2C1=O` [Example 97, (3-methyl-5-(2-methyl-4-(6-(trifluoromethyl)quinazolin-2-yl)phenyl)-4-oxo-4,5,6,7-tetrahydropyrazolo[1,5-a]pyrazin-2-yl)methyl dihydrogen phosphate], the IC50 is < 0.2 µM.

For the molecule `Cc1cc(-c2ncc3cc(C(F)(F)F)ccc3n2)ccc1N1CCn2nc(CN3CCC(=O)CC3)c(C)c2C1=O` [Example 98, 3-methyl-5-(2-methyl-4-(6-(trifluoromethyl)quinazolin-2-yl)phenyl)-2-((4-oxopiperidin-1-yl)methyl)-6,7-dihydropyrazolo[1,5-a]pyrazin-4 (5H)-one], the IC50 is < 0.2 µM.

Consider `Cc1cc(-c2ncc3cc(C(F)(F)F)ccc3n2)ccc1N1CCn2nc(CN3CCC(F)CC3)c(C)c2C1=O` [Example 99, 2-((4-fluoropiperidin-1-yl)methyl)-3-methyl-5-(2-methyl-4-(6-(trifluoromethyl)-quinazolin-2-yl)phenyl)-6,7-dihydropyrazolo[1,5-a]pyrazin-4 (5H)-one], for which the IC50 was < 0.2 µM.

Take `Cc1cc(-c2ncc3cc(C(F)(F)F)ccc3n2)ccc1N1CCn2nc(CN3CCC(O)CC3)c(C)c2C1=O` [Example 100, 2-((4-hydroxypiperidin-1-yl)methyl)-3-methyl-5-(2-methyl-4-(6-(trifluoromethyl)-quinazolin-2-yl)phenyl)-6,7-dihydropyrazolo[1,5-a]pyrazin-4 (5H)-one]: the IC50 was < 0.2 µM.

On to `Cc1cc(-c2ncc3cc(C(F)(F)F)ccc3n2)ccc1N1CCn2nc(CN3CCS(=O)(=O)CC3)c(C)c2C1=O` [Example 101, 2-((1,1-dioxidothiomorpholino)methyl)-3-methyl-5-(2-methyl-4-(6-(trifluoro-methyl)quinazolin-2-yl)phenyl)-6,7-dihydropyrazolo[1,5-a]pyrazin-4 (5H)-one], for which the IC50 was < 0.2 µM.

`Cc1cc(-c2ncc3cc(C(F)(F)F)ccc3n2)ccc1N1CCn2nc(CN3CCC4(CC3)COC4)c(C)c2C1=O` [Example 102, 2-((2-oxa-7-azaspiro[3.5]nonan-7-yl)methyl)-3-methyl-5-(2-methyl-4-(6-(trifluoromethyl)quinazolin-2-yl)phenyl)-6,7-dihydropyrazolo[1,5-a]pyrazin-4 (5H)-one]: the IC50 was < 0.2 µM.

For the molecule `Cc1cc(-c2ncc3cc(C(F)(F)F)ccc3n2)ccc1N1CCn2nc(CN3CCN(C)CC3)c(C)c2C1=O` [Example 103, 3-methyl-5-(2-methyl-4-(6-(trifluoromethyl)quinazolin-2-yl)phenyl)-2-((4-methyl-piperazin-1-yl)methyl)-6,7-dihydropyrazolo[1,5-a]pyrazin-4 (5H)-one], the IC50 was < 0.2 µM.

Consider `Cc1cc(-c2ncc3cc(C(F)(F)F)ccc3n2)ccc1N1CCn2nc(CN3CCN(C)C(=O)C3)c(C)c2C1=O` [Example 104, 3-methyl-2-((4-methyl-3-oxopiperazin-1-yl)methyl)-5-(2-methyl-4-(6-(trifluoro-methyl)quinazolin-2-yl)phenyl)-6,7-dihydropyrazolo[1,5-a]pyrazin-4 (5H)-one], for which the IC50 is < 0.2 µM.

With `Cc1cc(-c2ncc3nc(C(F)(F)F)ccc3n2)ccc1N1CCn2nc(CN3CCOCC3)c(C)c2C1=O` [Example 105, 3-methyl-5-(2-methyl-4-(6-(trifluoromethyl)pyrido[3,2-d]pyrimidin-2-yl)phenyl)-2-(morpholinomethyl)-6,7-dihydropyrazolo[1,5-a]pyrazin-4 (5H)-one], the IC50 was < 0.2 µM.

For the molecule `Cc1cc(-c2ccc3nc(C(F)(F)F)ccc3n2)ccc1N1CCn2nc(CN3CCOCC3)c(C)c2C1=O` [Example 106, 3-methyl-5-(2-methyl-4-(6-(trifluoromethyl)-1,5-naphthyridin-2-yl)phenyl)-2-(morpholinomethyl)-6,7-dihydropyrazolo[1,5-a]pyrazin-4 (5H)-one], the IC50 is < 0.2 µM.

As for `Cc1cc(-c2ncc3cc(C(F)(F)F)ccc3n2)ccc1N1CCn2nc(C(=O)N3CCN(C)CC3)c(C)c2C1=O` [Example 107, 3-methyl-5-(2-methyl-4-(6-(trifluoromethyl)quinazolin-2-yl)phenyl)-2-(4-methylpiperazine-1-carbonyl)-6,7-dihydropyrazolo[1,5-a]pyrazin-4 (5H)-one], the half-inhibitory concentration (IC50) was < 0.2 µM.

`Cc1cc(-c2ncc3cc(C(F)(F)F)ccc3n2)ccc1N1CCn2nc(CN3CCC(F)(F)CC3)c(C)c2C1=O` [Example 108, 2-((4,4-difluoropiperidin-1-yl)methyl)-3-methyl-5-(2-methyl-4-(6-(trifluoro-methyl)quinazolin-2-yl)phenyl)-6,7-dihydropyrazolo[1,5-a]pyrazin-4 (5H)-one]: the IC50 was < 0.2 µM.

In the case of `Cc1cc(-c2ncc3cc(C(F)(F)F)ccc3n2)ccc1N1CCn2nc(CN3CCCC4(COC4)C3)c(C)c2C1=O` [Example 110, 2-((2-oxa-6-azaspiro[3.5]nonan-6-yl)methyl)-3-methyl-5-(2-methyl-4-(6-(trifluoro-methyl)quinazolin-2-yl)phenyl)-6,7-dihydropyrazolo[1,5-a]pyrazin-4 (5H)-one], the IC50 is < 0.2 µM.

With `Cc1cc(-c2ncc3cc(C(F)(F)F)ccc3n2)ccc1N1CCn2nc(CN3CCC4(COC4)C3)c(C)c2C1=O` [Example 111, 2-((2-oxa-6-azaspiro[3.4]octan-6-yl)methyl)-3-methyl-5-(2-methyl-4-(6-(trifluoromethyl)quinazolin-2-yl)phenyl)-6,7-dihydropyrazolo[1,5-a]pyrazin-4 (5H)-one], the IC50 is < 0.2 µM.

In the case of `Cc1cc(-c2ncc3cc(C(F)(F)F)ccc3n2)ccc1N1CCn2nc(C(C)N3CCOCC3)c(C)c2C1=O` (centres unmarked) [Example 112, 3-methyl-5-(2-methyl-4-(6-(trifluoromethyl)quinazolin-2-yl)phenyl)-2-(1-morpholinoethyl)-6,7-dihydropyrazolo[1,5-a]pyrazin-4 (5H)-one], the IC50 is < 0.2 µM.

As a reminder, the IC50 is the point on the concentration scale where inhibition reaches its midpoint. Read a low IC50 as greater potency.
